Measured values reported in US20170042936A1, “COMPOSITION FOR LOCAL AND CONTROLLED RELEASE OF DRUGS AND METHODS THEREOF” (INEB - INSTITUTO NACIONAL DE ENGENHARIA BIOMÉDICA, priority 2014, published 2017).
“Also recorded” adds a separate entry of the source.

Assays:
MC3T3-E1 cells [1] = test: Metabolic activity of pre-osteoblasts (resazurin) in presence of released vancomycin; format: cell-based, mouse
Procedure: (§1) The pre-osteoblasts MC3T3-E1 cells, an osteoblastic cell line derived from mouse calvaria, were grown in alpha minimum essential medium (α-MEM, Gibco, Life Technologies, Grand Island, N.Y.), supplemented with 1% penicillinstreptomycin (Gibco) and 10% fetal bovine serum (FBS, Invitrogen, Carlsbad, Calif.). Cells were incubated in a humidified environment at 37° C. and 5% of CO2. Vancomycin adsorption on granules was performed as mentioned earlier. Granules were placed in 96-well plates, and cells were seeded using a density of 5×10^4 cells/mL. Cells were cultured for 21 days, and medium was changed three times a week. As control, cells were cultured on tissue culture polystyrene (TCPS) with the same conditions used for the granules. For each condition, six replicates were used for the resazurin assay.
In an embodiment, the metabolic activity was also performed. The nontoxic alamar blue (resazurin) dye was used to determine the metabolic activity of MC3T3-E1 cells. The blue nonfluorescent dye is metabolized by cells, converting it to a reduced pink fluorescence dye. Therefore, 10% (v/v) of resazurin was added to the medium and incubated for 4 h at 37° C. and 5% of CO2. Afterward, 100 μL was transferred into a black 96-well plate, and fluorescence was measured at 530 nm excitation and 590 nm emission wavelength with a fluorescence reader (SynergyMix, BioTek, Winooski, Vt.) using Gen5 1.09 Data Analysis Software. These measurements were made at 24 h and 4, 7, 14, and 21 days of culture.

MC3T3-E1 cells [2] = test: Cell morphology on granules by SEM and confocal laser scanning microscopy; format: cell-based, mouse; conditions: in presence of vancomycin
Procedure: as §1
Granules with seeded cells were rinsed with PBS and fixer using 1.5% gluteraldehyde (v/v) (Agar) in 0.14 M sodium cacodyl-ate buffer (Merck, Kenilworth, N.J.) at RT for 30 min. The samples were washed twice with PBS and then dehydrated in graded series of ethanol. Hexamethyldisilazane (Sigma) was added, and the samples were dried overnight at RT. Granules were visualized on SEM as previously described.
Confocal laser scanning microscopy. Granules with seeded cells were fixed using 4% paraformaldehyde for 15 min and then washed twice with PBS. Triton X-100 0.1% was used, for 5 min, to permeabilize the cells, and the cells were then incubated in 1% bovine serum albumin at 37° C. for 30 min. After incubation, the staining of the F-actin filaments was performed using Alexa Fluor 594 Phalloidin (1:100, Molecular Probes A12379, Invitrogen) in 1% bovine serum albumin at RT for 20 min in dark. The samples were then washed twice with PBS. Cell nuclei were stained with a solution of Hoechst dye (1:1000, Sigma) in PBS at RT for 15 min in dark. Finally, the samples were washed twice with PBS, and one drop of Vectashield was added. The images were acquired with a Leica SP5 Confocal microscope, using a […] oil immersion objective. […]

S. aureus ATCC 25923 = conditions: cited from earlier work

## CN[C@H](CC(C)C)C(=O)N[C@H]1C(=O)N[C@@H](CC(N)=O)C(=O)N[C@H]2C(=O)N[C@H]3C(=O)N[C@H](C(=O)N[C@H](C(=O)O)c4cc(O)cc(O)c4-c4cc3ccc4O)[C@H](O)c3ccc(c(Cl)c3)Oc3cc2cc(c3O[C@@H]2O[C@H](CO)[C@@H](O)[C@H](O)[C@H]2O[C@H]2C[C@](C)(N)[C@H](O)[C@H](C)O2)Oc2ccc(cc2Cl)[C@H]1O [vancomycin]
MC3T3-E1 cells [1]; vancomycin released from heparinized granules, after 14 days of culture
  viability of osteoblast cells in presence of vancomycin: cells were able to remain viable; also recorded: did not affect the viability of MC3T3-E1 cells
MC3T3-E1 cells [1]; vancomycin released from heparinized nanoHA/collagen granules, 24 h of culture
  metabolic activity of MC3T3-E1 cells versus without vancomycin: no difference in the metabolic activity
MC3T3-E1 cells [1]; vancomycin released from heparinized nanoHA/collagen granules, after 14 days up to 21 days of culture
  metabolic activity of MC3T3-E1 cells: increased their metabolic activity
MC3T3-E1 cells [1]; vancomycin released from heparinized nanoHA/collagen granules, until 7 days of culture
  metabolic activity of MC3T3-E1 cells: decrease in metabolic activity
MC3T3-E1 cells [2]; 24 h and 4 days
  MC3T3-E1 cell morphology (confocal microscopy): more rounded morphology
MC3T3-E1 cells [2]; after 7 days
  MC3T3-E1 cell morphology (confocal microscopy): started to elongate on the surface of the material
MC3T3-E1 cells [2]; after 14 days
  MC3T3-E1 cell morphology (confocal microscopy): well spread, covering the entire surface
S. aureus ATCC 25923
  vancomycin minimum inhibitory concentration (MIC): 1 µg/mL
